Results as given in the NIST ThermoML archive (doi:10.1016/j.jct.2014.02.018).
Where “and” joins values, the source holds several entries; their conditions need not be identical. Equal values may be shown once.

Conditions: Crystal, Calculated from knudsen effusion weight loss

Cn1cc(F)c(=O)n(C)c1=O [2,4(1H,3H)-pyrimidinedione, 5-fluoro-1,3-dimethyl-]
Conditions	vapor or sublimation pressure
317.18 K	8.39e-05 kPa and 8.8e-05 kPa and 8.46e-05 kPa
319.21 K	0.0001113 kPa and 0.0001195 kPa and 0.0001105 kPa
321.12 K	0.0001414 kPa and 0.0001372 kPa and 0.000135 kPa
323.18 K	0.0001684 kPa and 0.0001645 kPa and 0.0001712 kPa
325.22 K	0.00021 kPa and 0.0002051 kPa and 0.0002013 kPa
327.13 K	0.0002547 kPa and 0.0002583 kPa and 0.0002608 kPa
329.18 K	0.0003128 kPa and 0.0003165 kPa and 0.000333 kPa
331.22 K	0.0004074 kPa and 0.0004027 kPa and 0.0004159 kPa
333.12 K	0.0005058 kPa and 0.0004953 kPa and 0.0005012 kPa
335.17 K	0.0006116 kPa and 0.0006003 kPa and 0.0006128 kPa
337.24 K	0.0007507 kPa and 0.0007652 kPa and 0.0007436 kPa
339.14 K	0.0009104 kPa and 0.0009266 kPa and 0.0009283 kPa

O=c1[nH]cc(F)c(=O)[nH]1 [5-fluoro-2,4(1H,3H)-pyrimidinedione]
Conditions	vapor or sublimation pressure
411.14 K	0.000178 kPa and 0.000166 kPa and 0.000165 kPa
413.1 K	0.000207 kPa and 0.000197 kPa and 0.000198 kPa
415.14 K	0.000239 kPa and 0.000235 kPa and 0.000246 kPa
417.14 K	0.000261 kPa and 0.000283 kPa and 0.000278 kPa
419.14 K	0.000347 kPa and 0.000332 kPa and 0.000351 kPa
421.18 K	0.000418 kPa and 0.000401 kPa and 0.000406 kPa
423.16 K	0.000477 kPa and 0.000472 kPa and 0.000474 kPa
425.11 K	0.000588 kPa and 0.000561 kPa and 0.00058 kPa
427.16 K	0.000669 kPa and 0.000668 kPa
429.15 K	0.000836 kPa and 0.000794 kPa and 0.000829 kPa
431.11 K	0.001027 kPa and 0.001013 kPa and 0.000961 kPa
433.17 K	0.001185 kPa and 0.001148 kPa and 0.001135 kPa
